For data set [1] the following is noted: disulfide bond, air (O2), (NH4)2CO3 buffer pH 8.4, water, 168.0 h.
The next data set addresses T1, Bovine trypsin (Bos taurus, UniProt P00760).
T1 construct: purchased Sigma-Aldrich
T1 sequence (P00760 24-246): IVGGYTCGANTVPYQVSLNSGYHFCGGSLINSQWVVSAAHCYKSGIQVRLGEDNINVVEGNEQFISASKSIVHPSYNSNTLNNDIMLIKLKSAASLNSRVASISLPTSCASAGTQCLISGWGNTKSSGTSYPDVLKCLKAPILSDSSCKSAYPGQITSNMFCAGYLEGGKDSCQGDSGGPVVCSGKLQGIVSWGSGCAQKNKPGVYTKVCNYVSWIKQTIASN
Description: Trypsin enzyme inhibition assay with chromogenic substrate Boc-QAR-pNA. Format: biochemical. To be noted: pH 7.6. The protocol: (§1) Recombinant production, autocatalytic activation and purification of matriptase were conducted as previously described. Bovine trypsin was purchased from Sigma-Aldrich. Active-site titration and determination of Michaelis-Menten constants KM for the chromogenic substrate Boc-QAR-pNA was performed as reported earlier.
All experiments were performed in triplicate. Active-site titrated matriptase (final concentration: [E]=0.9 nM) or trypsin (final concentration: [E]=0.5 nM) were incubated with the respective inhibitor in different concentrations [I] at pH 7.6 or 8.5 for 30 min. Then, the chromogenic substrate Boc-QAR-pNA (final concentration: [S]=250 μM) was added. The residual proteolytic activity (v/v0) was determined by monitoring the absorption of the corresponding samples in 96-well plates (NUNC, round bottom, clear) at 405 nm in 60 sec intervals over 30 min at RT using the Tecan GENios microplate reader. Slopes of the initial reaction velocities (steady-state) were calculated and normalized to the data of the uninhibited enzymatic hydrolysis of Boc-QAR-pNA. The determined v/v0 values were plotted against the concentration of the inhibitor. The resulting dose-response curves were fitted either by equation 1 or in case of tight-binding inhibition (trypsin: 42; matriptase: 43 at pH 8.5, 44 at pH 7.6 and 8.5) by equation 2 through non-linear regression.
(§2) Errors were calculated through propagation of errors (compare Tischler et al.).[17]

A further data set concerns the target T2, matriptase (Homo sapiens, UniProt Q9Y5Y6).
T2 construct: made in house
T2 sequence (Q9Y5Y6 615-855 limits assumed): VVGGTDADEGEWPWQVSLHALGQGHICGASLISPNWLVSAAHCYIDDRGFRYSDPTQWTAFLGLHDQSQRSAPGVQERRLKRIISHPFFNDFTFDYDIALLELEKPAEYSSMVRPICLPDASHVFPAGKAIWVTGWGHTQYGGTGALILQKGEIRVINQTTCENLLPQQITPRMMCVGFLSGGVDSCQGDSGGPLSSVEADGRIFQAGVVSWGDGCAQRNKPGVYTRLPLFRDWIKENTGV
The data set is described as follows: Matriptase enzyme inhibition assay with chromogenic substrate Boc-QAR-pNA. Type of data set: biochemical. The note with it: for matriptase affinity / inhibitor potency in words: enzyme inhibition assays, comparator as worded; for Relative Activity: ratio Ki of compound / Ki of SFTI-1[1,14]; for Sum of Increment Contributions: sum of ΔBG differences of the single modifications. The protocol: as §1
All experiments were performed in triplicate. […] Slopes of the initial reaction velocities (steady-state) were calculated and normalized to the data of the uninhibited enzymatic hydrolysis of Boc-QAR-pNA. The determined v/v0 values were plotted against the concentration of the inhibitor.
as §2

Read-outs that look alike come from different tables or passages of the source. Bridge positions count the residues as written; N and C are the ends. Peptide text beside a SMILES is read from it.

`CC[C@H](C)[C@@H]1NC(=O)[C@@H]2CCCN2C(=O)[C@@H]2CCCN2C(=O)[C@H](Cn2cc(CN)nn2)NC(=O)[C@H](CO)NC(=O)[C@H](CCCCN)NC(=O)[C@H]([C@@H](C)O)NC(=O)[C@@H](NC(=O)[C@H](CCCNC(=N)N)NC(=O)CN)CSSC[C@@H](C(=O)N[C@@H](Cc2ccccc2)C(=O)N2CCC[C@H]2C(=O)N[C@@H](CC(=O)O)C(=O)O)NC1=O`: in data set [1] (from CC[C@H](C)[C@H](NC(=O)[C@@H]1CCCN1C(=O)[C@@H]1CCCN1C(=O)[C@H](Cn1cc(CN)nn1)NC(=O)[C@H](CO)NC(=O)[C@H](CCCCN)NC(=O)[C@@H](NC(=O)[C@H](CS)NC(=O)[C@H](CCCNC(=N)N)NC(=O)CN)[C@@H](C)O)C(=O)N[C@@H](CS)C(=O)N[C@@H](Cc1ccccc1)C(=O)N1CCC[C@H]1C(=O)N[C@@H](CC(=O)O)C(=O)O, 0.63 mM, 4 steps), the ring closure, yield of all isomers was 17%.
`CC[C@H](C)[C@@H]1NC(=O)[C@H](CO)NC(=O)[C@H](CCCCN)NC(=O)[C@H]([C@@H](C)O)NC(=O)[C@@H](NC(=O)[C@H](CCCNC(=N)N)NC(=O)CN)CSSC[C@@H](C(=O)N[C@@H](Cc2ccccc2)C(=O)N2CCC[C@H]2C(=O)N[C@@H](CC(=O)O)C(=O)O)NC(=O)[C@H](CCCCN)NC(=O)[C@@H]2CCCN2C(=O)[C@@H]2CCCN2C1=O` showed a ring closure, yield of all isomers in data set [1] (from CC[C@H](C)[C@H](NC(=O)[C@H](CO)NC(=O)[C@H](CCCCN)NC(=O)[C@@H](NC(=O)[C@H](CS)NC(=O)[C@H](CCCNC(=N)N)NC(=O)CN)[C@@H](C)O)C(=O)N1CCC[C@H]1C(=O)N1CCC[C@H]1C(=O)N[C@@H](CCCCN)C(=O)N[C@@H](CS)C(=O)N[C@@H](Cc1ccccc1)C(=O)N1CCC[C@H]1C(=O)N[C@@H](CC(=O)O)C(=O)O, […], 29 steps) of 3.9%.
As to `CC[C@H](C)[C@@H]1NC(=O)[C@H](CO)NC(=O)[C@H](CCCCN)NC(=O)[C@H]([C@@H](C)O)NC(=O)[C@@H](NC(=O)[C@H](CCCNC(=N)N)NC(=O)CN)CSSC[C@@H](C(=O)N[C@@H](Cc2ccccc2)C(=O)N2CCC[C@H]2C(=O)N[C@@H](CC(=O)O)C(=O)O)NC(=O)[C@H](Cn2cc(CN)nn2)NC(=O)[C@@H]2CCCN2C(=O)[C@@H]2CCCN2C1=O`, the ring closure, yield of all isomers in data set [1] (from CC[C@H](C)[C@H](NC(=O)[C@H](CO)NC(=O)[C@H](CCCCN)NC(=O)[C@@H](NC(=O)[C@H](CS)NC(=O)[C@H](CCCNC(=N)N)NC(=O)CN)[C@@H](C)O)C(=O)N1CCC[C@H]1C(=O)N1CCC[C@H]1C(=O)N[C@@H](Cn1cc(CN)nn1)C(=O)N[C@@H](CS)C(=O)N[C@@H](Cc1ccccc1)C(=O)N1CCC[C@H]1C(=O)N[C@@H](CC(=O)O)C(=O)O, 0.63 mM, 22 steps) was found to be 21.2%.
Usually Ki stands for the dissociation constant of the complex between target and ligand, obtained from inhibition or displacement. Read a high Ki as a looser hold on the target. `CC[C@H](C)[C@@H]1NC(=O)[C@H](CO)NC(=O)[C@H](CCCCN)NC(=O)[C@H]([C@@H](C)O)NC(=O)[C@@H](NC(=O)[C@H](CCCNC(=N)N)NC(=O)CN)CSSC[C@@H](C(=O)N[C@@H](Cc2c[nH]cn2)C(=O)N2CCC[C@H]2C(=O)N[C@@H](CC(=O)O)C(=O)O)NC(=O)[C@H](Cn2cc(CN)nn2)NC(=O)[C@@H]2CCCN2C(=O)[C@@H]2CCCN2C1=O` [Compound 42]: the ring closure, yield of all isomers in data set [1] (from CC[C@H](C)[C@H](NC(=O)[C@H](CO)NC(=O)[C@H](CCCCN)NC(=O)[C@@H](NC(=O)[C@H](CS)NC(=O)[C@H](CCCNC(=N)N)NC(=O)CN)[C@@H](C)O)C(=O)N1CCC[C@H]1C(=O)N1CCC[C@H]1C(=O)N[C@@H](Cn1cc(CN)nn1)C(=O)N[C@@H](CS)C(=O)N[C@@H](Cc1c[nH]cn1)C(=O)N1CCC[C@H]1C(=O)N[C@@H](CC(=O)O)C(=O)O, 0.63 mM, 30 steps) turned out to be 1.2%. In addition, at Bovine trypsin, the affinity corresponds to a Ki of 9.2 ± 2.1 nM. Further, at matriptase (pH 7.6), the “matriptase affinity / inhibitor potency in words” value is “further increased matriptase affinity compared to SFTI-1[1,14] derivatives 9, 18, and 22”. Further, at matriptase (matriptase, pH 7.6 (Table 2)), the “ΔBG(x)-ΔBG(SFTI-1[1,14])” value was 1.22 ± 0.096 kcal/mol and the “Relative Activity” value is given as 0.13. For the same compound, the Ki on matriptase (pH 7.6 (Table 2)) stood at 89.5 ± 11.1 nM. For the same compound, the “Sum of Increment Contributions” value on matriptase (matriptase, pH 7.6) is 1.65 ± 0.14 kcal/mol.
Consider `CC[C@H](C)[C@@H]1NC(=O)[C@H](CO)NC(=O)[C@H](CCCCN)NC(=O)[C@H]([C@@H](C)O)NC(=O)[C@@H](NC(=O)[C@H](CCCNC(=N)N)NC(=O)CN)CSSC[C@@H](C(=O)N[C@@H](Cc2c[nH]cn2)C(=O)N2CCC[C@H]2C(=O)N[C@@H](CC(=O)O)C(=O)O)NC(=O)[C@H](CCCNC(=N)N)NC(=O)[C@@H]2CCCN2C(=O)[C@@H]2CCCN2C1=O` [Compound 43] (H-GRCTKSIPPRCHPD-OH; disulfide 3-11; N-terminus assumed), for which, at Bovine trypsin, affinity was put at a Ki of 11.2 ± 2 nM. Further, the “sum of individual favorable contributions to ΔBG” value on matriptase (contributions of compounds 18 and 22) is 2.29 ± 0.14 kcal/mol. In addition, the “matriptase affinity / inhibitor potency in words” value on matriptase (pH 7.6) is “further increased matriptase affinity compared to SFTI-1[1,14] derivatives 9, 18, and 22”. Besides, on matriptase (matriptase, pH 7.6), the “difference of the free energies of binding/dissociation ΔBG between compound and SFTI-1[1,14]” value is 2.46 ± 0.096 kcal/mol; the “Sum of Increment Contributions” value was determined as 2.29 ± 0.14 kcal/mol. On matriptase (matriptase, pH 7.6 (Table 2)), the “ΔBG(x)-ΔBG(SFTI-1[1,14])” value is 2.46 ± 0.096 kcal/mol and the “Relative Activity” value stood at 0.016. On matriptase (pH 7.6 (Table 2)), this compound returned a Ki of 11 nM. This compound gave a Ki at matriptase (pH 8.5 (values in brackets)) of 1.1 nM.
As to `CC[C@H](C)[C@@H]1NC(=O)[C@H](CO)NC(=O)[C@H](CCCCN)NC(=O)[C@H]([C@@H](C)O)NC(=O)[C@@H](NC(=O)[C@H](CCCNC(=N)N)NC(=O)CN)CSSC[C@@H](C(=O)N[C@@H](Cc2c[nH]cn2)C(N)=O)NC(=O)[C@H](CCCNC(=N)N)NC(=O)[C@@H]2CCCN2C(=O)[C@@H]2CCCN2C1=O` [Compound 44] (H-GRCTKSIPPRCH-NH2; disulfide 3-11; N-terminus assumed), the Ki at Bovine trypsin is 38 ± 11.1 nM; at matriptase (pH 7.6 (Table 2)) it was 6.2 ± 1.2 nM; at matriptase (pH 8.5 (values in brackets)), 2.3 ± 0.8 nM. For the same compound, the “ΔBG(x)-ΔBG(SFTI-1[1,14])” value on matriptase (matriptase, pH 7.6 (Table 2)) amounted to 2.8 ± 0.14 kcal/mol. In addition, the “selectivity towards matriptase over trypsin” value at matriptase (pH 7.6) came out at 6 fold. Besides, the “Relative Activity” value at matriptase (matriptase, pH 7.6 (Table 2)) is listed as 0.009.

(Values after patent publication US20160016998A1, “HIGH-AFFINITY MATRIPTASE INHIBITORS” (MERCK PATENT GMBH, priority 2013, published 2016).)
